Test results reported in patent US4975434A, “Antiviral and anticancer cyclopentenyl cytosine” (priority 1989, dated 1990).
≈ marks a conversion by molar mass, not a printed value. Entries after “also recorded” stand apart in the source; their conditions may differ.

Legend:
L1210/ara-C Leukemia = test: In vivo antitumor test, ara-C resistant L1210 leukemia in mice; conditions: for Number of 60 day survivors per test group / % ILS: Table IV; for Number of 60 day survivors per test group: QD1-9; for % ILS: QD1-9, terminated day 60; for activity against ara-C resistant tumor: result in words
Rift Valley Fever virus = conditions: USAMRIID, Fort Detrick
[1] = tested on: malignant human promyelocytic leukemia cell line, HL-60; test: Growth inhibition and differentiation of HL-60 cells (nitroblue tetrazolium reduction); type: cell-based
[2] = tested on: P388/ara-C (Arabinosyl cytosine resistant P388 leukemia); test: In vivo antitumor test, ara-C resistant P388 leukemia in mice; conditions: for activity against ara-C resistant P388: result in words
tumors = test: Antitumor activity (general statement); conditions: general statement
[3] = tested on: Herpes simplex type 2, strain MS; test: Cytopathogenic inhibition test, HSV-2; type: cell-based
LOX Melanoma = test: Human tumor xenograft in athymic mice, LOX melanoma (intraperitoneal)
[4] = tested on: phosphorylation of uridine; test: Inhibition of uridine phosphorylation
[5] = tested on: Punta Toro virus, strain Adames; test: microbe, parasite or virus in culture; type: cell-based, Punta Toro virus; host Vero cells
[6] = tested on: Huf (human diploid foreskin cells); test: Toxicity to Huf host cells (gross cell morphology) in the VZV assay; type: cell-based
[7] = tested on: MRC5 (diploid human embryonic lung cells); test: Toxicity to MRC5 host cells (gross cell morphology) in the CMV assay
L1210 leukemia = test: In vivo antitumor test, L1210 leukemia in mice; conditions: for Number of 60 day survivors per test group: QD1-9
c-myc mRNA = c-myc mRNA levels in HL-60 cells; type: cell-based, human
[8] = tested on: Vaccinia, strain Lederle CA; test: microbe, parasite or virus in culture; type: cell-based
Rhinovirus 1A = test: Antiviral activity against rhinovirus 1A; type: cell-based; conditions: result in words
M5076 sarcoma = test: In vivo antitumor test, M5076 sarcoma in mice
[9] = tested on: Janapese Encephalitis virus, strain Najayama; test: Antiviral test in vitro, Japanese encephalitis virus; type: cell-based, Japanese encephalitis virus; host Vero cells
[10] = tested on: Yellow Fever virus, strain Asibi; test: microbe, parasite or virus in culture; type: cell-based, Yellow Fever virus; host Vero cells
A549 Lung = test: Human tumor xenograft in athymic mice, A549 lung (subrenal capsule)
CTP levels = CTP levels in normal and tumor tissue of L1210 bearing mice; type: in vivo, mouse; conditions: normal vs tumor tissue of L1210 bearing mice
[11] = tested on: HL-60 DNA synthesis / RNA synthesis; test: Inhibition of nucleic acid (DNA, RNA) synthesis in HL-60 cells; type: cell-based, human
[12] = listed as cyclopentenyl cytosine
[13] = Table II Experiment 1, tumor IP, IP QD1-9, OD 1.5 mg/kg/injection
[14] = Table II Experiment 2, tumor IP, IP QD1-9, OD 1.5 mg/kg/injection
[15] = minimum toxic drug concentration / ID50, Vero cells
[16] = IP L1210, IP treatment daily days 1-9, optimum dose 1 mg/kg/inj (Table I)
[17] = IP L1210, IP treatment every 4th day, days 1, 5, 9, optimum dose 4 mg/kg/inj
[18] = IP L1210, IP treatment every 3 hr x 8, days 1, 5, 9, optimum dose 0.5 mg/kg/inj
[19] = Table II Experiment 1, tumor IP, IP QD1-9, OD 1.0 mg/kg/injection
[20] = Table II Experiment 1, tumor IP, oral drug administration, OD 2.25 mg/kg/injection
[21] = Table II Experiment 2, tumor IP, IP QD1-9, OD 1.0 mg/kg/injection
[22] = Table II Experiment 2, tumor IP, oral drug administration, OD 2.25 mg/kg/injection
[23] = Table II Experiment 2, tumor SC, IP QD1-9, OD 1.0 mg/kg/injection
[24] = Table II Experiment 1, tumor IP, IP QD1-13, OD 0.5 mg/kg/injection

## Nc1ccn([C@@H]2C=C(CO)[C@@H](O)[C@H]2O)c(=O)n1 [CPE-C]
L1210/ara-C Leukemia; CPE-C 1.0 mg/kg
  Number of 60 day survivors per test group: 6/10
  % ILS: > 650%
L1210/ara-C Leukemia; CPE-C 1.5 mg/kg
  Number of 60 day survivors per test group: 5/9
  % ILS: > 650%
L1210/ara-C Leukemia; CPE-C 2.25 mg/kg
  Number of 60 day survivors per test group: 6/10
  % ILS: > 650%
L1210/ara-C Leukemia
  activity against ara-C resistant tumor: producing multiple cures against the resistant tumor; also recorded: collaterally sensitive
L1210/ara-C Leukemia; [12]
  activity against ara-C resistant tumor: significant antitumor activity
Rift Valley Fever virus
  antiviral activity: particularly active
[1]; continuous exposure for 5 days to 10^-8 to 10^-6 M
  inhibition of cell growth: progressive inhibition of cell growth
[1]; continuous exposure for 5 days to 10^-8 to 10^-6 M, general statement
  differentiation: differentiation to a non-malignant phenotype
[1]; four days after exposure to 10^-7 M
  cell population that reduced nitroblue tetrazolium: 95%
[2]; [13]
  % ILS: 165%
  LCK: > 6.5 log
  Number of 30 day survivors out of six mice: 3
[2]; [14]
  % ILS: 133%
  LCK: 3.8 log
[2]
  activity against ara-C resistant P388: collaterally sensitive
[2]; [12]
  activity against ara-C resistant P388: significant antitumor activity
tumors
  activity against ara-C resistant tumors and human tumors grown in mice: particularly potent and active agents
[3]; Human alphaherpesvirus 2, Vero cells, strain MS, inhibition of virus-induced cytopathogenic effects, read-out: ID50 (the source's name)
  IC50: 2.7 µg/mL (≈ 11.3 µM)
[3]; Vero cells, strain MS
  VR (virus rating): 2.3
[3]; result in words
  antiviral activity: Potent activity
LOX Melanoma; 2.25 mg/kg, QD 1-9
  tumor cell kill: two-log tumor cell kill
LOX Melanoma; LOX xenograft
  potency relative to 3DU: about 100 times
LOX Melanoma; Table III Experiment 1, tumor IP, IP QD1-9, OD 1.0 mg/kg/injection
  % ILS: 119%
LOX Melanoma; Table III Experiment 2, tumor IP, IP QD1-9, OD 2.25 mg/kg/injection
  % ILS: 80%
LOX Melanoma; Table IV, CPE-C 1.5 mg/kg, QD1-9
  % ILS: 58%
LOX Melanoma; Table IV, CPE-C 2.25 mg/kg, QD1-9
  % ILS: 80%
LOX Melanoma; in vivo
  difference in tumor burden between CPE-C and 3DU: five-log difference in tumor burden
LOX Melanoma; intraperitoneally implanted
  increase in life span: about 100%
LOX Melanoma; result in words
  activity: Good activity
[4]
  inhibition of phosphorylation of uridine: inhibited competitively the phosphorylation of uridine
[5]
  VR (virus rating): 1.5
[5]; Punta Toro virus, Vero, read-out: ID50
  IC50: 1.01 µg/mL (≈ 4.22 µM)
[5]; [15]
  TI (therapeutic index): 0.3
[5]; result in words
  antiviral activity: Good activity; also recorded: Virus ratings greater than two
[6]; 320 μg/ml
  Host cell toxicity (gross cell morphology): Slightly toxic
[6]; 100 and 32 μg/ml
  Host cell toxicity (gross cell morphology): Very slightly toxic
[7]; 320 μg/ml
  Host cell toxicity (gross cell morphology): Slightly toxic
[7]; each of 100, 32, 10, 3.2 and 1.0 μg/ml
  Host cell toxicity (gross cell morphology): Very slightly toxic
L1210 leukemia; IP 1.0 mg/kg, QD 1-9, 30-day, 1.5 mg/kg
  long term survivors: Multiple 30-day survivors; also recorded: multiple long term survivors
L1210 leukemia; [16]
  ILS (median percent increase in life span): 124%
  LCK (approximate log cell kill at the end of treatment): 3.0 log
L1210 leukemia; [17]
  ILS (median percent increase in life span): 91%
  LCK (approximate log cell kill at the end of treatment): 0.1 log
L1210 leukemia; [18]
  ILS (median percent increase in life span): 116%
  LCK (approximate log cell kill at the end of treatment): 1.5 log
L1210 leukemia; QD 1-9, Q4D, Q3Hx8
  schedule dependency: no significant schedule dependency
L1210 leukemia; Table II Experiment 1, tumor IC (intracerebral), IP QD1-9, OD 1.5 mg/kg/injection
  % ILS: 45%
L1210 leukemia; [19]
  % ILS: 212%
  LCK: > 6.0 log
  Number of 30 day survivors out of six mice: 4
L1210 leukemia; [20]
  % ILS: 125%
  LCK: 1.9 log
L1210 leukemia; Table II Experiment 1, tumor SC, IP QD1-9, OD 1.5 mg/kg/injection
  % ILS: 109%
L1210 leukemia; Table II Experiment 2, tumor IC (intracerebral), IP QD1-9, OD 1.0 mg/kg/injection
  % ILS: 42%
L1210 leukemia; [21]
  % ILS: 201%
  LCK: > 5.8 log
  Number of 30 day survivors out of six mice: 2
L1210 leukemia; [22]
  % ILS: 57%
  LCK: -2.2 log
L1210 leukemia; [23]
  % ILS: 83%
  Number of 30 day survivors out of six mice: 1
L1210 leukemia; Table IV, CPE-C 1.0 mg/kg
  Number of 60 day survivors per test group: 1/10
L1210 leukemia; Table IV, CPE-C 1.0 mg/kg, QD1-9, terminated day 60
  % ILS: 116%
L1210 leukemia; Table IV, CPE-C 1.5 mg/kg
  Number of 60 day survivors per test group: 2/9
L1210 leukemia; Table IV, CPE-C 1.5 mg/kg, QD1-9, terminated day 60
  % ILS: 171%
L1210 leukemia; Table IV, CPE-C 2.25 mg/kg, QD1-9, terminated day 60
  % ILS: 146%
L1210 leukemia; in vivo antitumor experiments
  potency relative to carbodine, in vivo antitumor: A similar potency difference
L1210 leukemia; initial in vivo tests
  activity and potency relative to carbodine: significantly greater levels of activity and potency than carbodine
L1210 leukemia; intracerebral L1210, text
  ILS: about 40%
L1210 leukemia; standard L1210 leukemia
  activity, head to head comparison with 3DU: significantly better
c-myc mRNA
  inhibition of c-myc mRNA levels: more pronounced than the reduction in total cellular RNA synthesis; also recorded: reduction of c-myc RNA levels
[8]
  potency relative to ara-A: about 100 times
[8]; Orthopoxvirus vaccinia, Vero, in Chlorocebus sabaeus, read-out: ID50
  IC50: 0.1 µg/mL (≈ 0.418 µM)
[8]; Vero cells, strain Lederle CA
  VR (virus rating): 4.6
[8]; result in words
  antiviral activity: very sensitive to CPE-C; also recorded: Potent activity
Rhinovirus 1A
  antiviral activity: Activity was not seen
M5076 sarcoma; [24]
  % ILS: 5%
  LCK: -2.0 log
M5076 sarcoma; result in words
  activity: inactive
[9]; Japanese encephalitis virus, Vero, read-out: ID50
  IC50: 0.1 µg/mL (≈ 0.418 µM)
[9]; Vero cells, strain Najayama
  VR (virus rating): 2.4
[9]; [15]
  TI (therapeutic index): 3.1
[9]; result in words
  antiviral activity: Good activity; also recorded: greater potency and higher therapeutic index than Ribavarin
[10]; Vero cells, strain Asibi
  VR (virus rating): 0.9
[10]; Yellow fever virus, Vero, read-out: ID50
  IC50: 5.05 µg/mL (≈ 21.1 µM)
[10]; [15]
  TI (therapeutic index): 0.1
A549 Lung
  growth inhibition: 100%
A549 Lung; A549 experiments 1 and 2, 1.5 and 2.0 mg/kg/injection, each group of six mice
  Toxicity: weight loss and deaths: weight loss and one or two deaths
A549 Lung; Table III Experiment 1, SRC, IP QD1-9, OD 1.5 mg/kg/injection, day 0 to 11
  % Tumor Inhibition (negative value denotes tumor regression): -59%
A549 Lung; Table III Experiment 2, SRC, IP QD1-9, OD 2.0 mg/kg/injection, day 0 to 11
  % Tumor Inhibition: 92%
CTP levels
  tissue specificity of CTP reduction: some tissuespecificity towards the tumor
[11]; 10^-7 M
  RNA synthesis: inhibited to a lesser extent
[11]; 24 hrs. after exposure to 10^-7 M
  DNA synthesis, % of control levels: 10%
